In patent publication US11339171B2, “MDM2 inhibitors” (Gan & Lee Pharmaceuticals, priority 2017, dated 2022):
“And” between values parts separate entries of the source, which are not always exact repeats. Equal values may be shown once. Read-outs that look alike come from different tables or passages of the source.

How the values were obtained:
MDM2 = molecular target: T1, MDM2 (Homo sapiens, UniProt Q00987); experiment: Inhibition test of MDM2-P53 (GST-MDM2, Biotin-P53, Anti-GST-Tb, SA-XL665); assay type: binding
T1 construct: made in house
T1 sequence (Q00987 whole entry): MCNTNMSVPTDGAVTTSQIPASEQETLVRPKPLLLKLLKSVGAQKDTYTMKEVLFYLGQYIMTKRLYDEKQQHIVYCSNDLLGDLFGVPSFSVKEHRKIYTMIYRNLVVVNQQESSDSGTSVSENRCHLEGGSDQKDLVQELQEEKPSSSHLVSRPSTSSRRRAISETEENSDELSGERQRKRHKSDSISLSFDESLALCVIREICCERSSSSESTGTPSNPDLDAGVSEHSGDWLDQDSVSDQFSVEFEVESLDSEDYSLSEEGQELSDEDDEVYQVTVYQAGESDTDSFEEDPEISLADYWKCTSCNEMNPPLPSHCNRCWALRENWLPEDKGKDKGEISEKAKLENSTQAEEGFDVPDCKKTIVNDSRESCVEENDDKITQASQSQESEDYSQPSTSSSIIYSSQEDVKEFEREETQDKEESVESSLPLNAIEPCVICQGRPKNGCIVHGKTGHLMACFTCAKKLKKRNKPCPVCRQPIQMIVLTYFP
Procedure: Experimental purpose: To determine the inhibitory activities of the compounds of the present invention on MDM2.
The present experiment uses the following assay methods/instruments/reagents:
Buffer: 1×PBS+0.1% BSA+5 mM DTT; MDM2 Buffer: Buffer+1 mM AEBSF
GST-MDM2: The final concentration is 4 nM, and it is required to formulate a 20 nM (5×) solution. A mother liquor is diluted by 3500 folds, wherein the mother liquor is 10-fold diluted first, and then 350-fold diluted.
Anti-GST-Tb: The final concentration is 2×, and a mother liquor is diluted by 50 folds.
MIX: GST-MDM2, Biotin-P53, SA-XL665 and Anti-GST-Tb were mixed according to a ratio of 4:4:5:5.
Sample: Preparation of a sample (10 mM in DMSO) solution: a. 3 μL sample+7 μL DMSO+20 μL DMSO were formulated to give an initial concentration of 1 mM and mixed well; b. in plate 1, twelve 5-fold serial dilutions (sequentially prepared by adding 10 μL of the last sample to 40 μL DMSO) were prepared and mixed well, individually; c. plate 2 was taken, 45 μL of Buffer was added to each well, and 5 μL of dilution at each concentration was taken from plate 1 and added to the corresponding well in plate 2 (the concentration in well 1 was 100 μM), and mixed well.
1. 18 μL of MIX was added to a 384-well plate, and centrifugation was performed at 4500 rpm for 5 min.
2. 2 μL of sample was added correspondingly to each well, the resultant was centrifuged at 25° C. and 4500 rpm for 5 min, and shaked at 25° C. for 90 min on a shaker.
Readings were obtained from the Microplate reader, and data was processed by Graphpad Prism 6.0.

[1] = Pharmacokinetics in ICR mice after intravenous and intragastric administration; assay type: in vivo; conditions: for MRT last: read-out: MRT(0-t); for MRT inf: read-out: MRT(0-∞); for Tmax: read-out: Tmax; for Vd: read-out: Vz; for half-life: read-out: t1/2 (converted)
Procedure: Experimental Example 3 Determination of the Pharmacokinetics of the Mdm2 Inhibitors of the Present Invention in Mice
ICR mice were used as the test animals, and the concentrations of the drugs in plasma of mice at different time points after intravenous administration and intragastric administration of the representative compounds were measured by a LC/MS/MS method, so as to study the pharmacokinetic behavior of the compounds of the present invention in mice and evaluate the pharmacokinetic characteristics thereof.
Some compounds prepared in Examples 1-180 of the present invention.
The control drug HDM201 was prepared by the method disclosed in patent No. CN104203952A.
Healthy adult ICR mice, male, 6-9 weeks old, weighing 20-30 g, purchased from Shanghai Xipuer-Bikai Laboratory Animal Co., Ltd., Animal Production License No.: SCXK (HU) 2013-0016
3.2.3 Preparation of Test Drugs
Intragastric or intravenous administration: an appropriate amount of sample was weighed, dissolved in 5% DMSO+40% PEG400+55% (10% HP-β-CD in Saline) to prepare a 0.5 mg/ml solution for intragastric or intravenous administration.
3.2.4 Administration of Test Drugs
Intravenous administration: for each test compound, 3 male ICR mice were administered intravenously at a dose of 2 mg/kg and an administration volume of […] after fasting overnight.
Intragastric administration: for each test compound, 3 male ICR mice were administered intragastrically at a dose of 5 mg/kg and an administration volume of […] after fasting overnight.
3.3 Experimental Operation
The collected plasma was stored at −80° C. before analysis. The plasma sample was analyzed by LC-MS/MS, and the sample was pretreated by protein precipitation method. The linear range of sample analysis was 1 to 2000 ng/ml. The lowest quantification limit was 1 ng/mL. WinNonlin (Pharsight, USA) was used to calculate the following pharmacokinetic parameters: area under the curve AUC(0-t), area under the curve AUC(0-∞), half-life t1/2, retention time MRT(0-∞), blood drug concentration Cmax, time taken to reach the peak blood drug concentration Tmax, bioavailability F, apparent volume of distribution Vz, and clearance rate CL.

[2] = IV 2 mg/kg, ICR mice, individual animal, 2 mg/kg
[3] = PO 5 mg/kg, ICR mice, individual animal, 5 mg/kg
[4] = male, ICR, mouse, plasma, iv, 2 mg/kg, IV 2 mg/kg, ICR mice, Mean
[5] = male, ICR, mouse, plasma, iv, 2 mg/kg, IV 2 mg/kg, ICR mice, individual animal
[6] = male, ICR, mouse, plasma, po, 5 mg/kg, PO 5 mg/kg, ICR mice, Mean
[7] = male, ICR, mouse, plasma, po, 5 mg/kg, PO 5 mg/kg, ICR mice, individual animal

COc1cc(OC(C)C)ncc1-c1nc2c(n1C(C)C)[C@]1(C(=O)Nc3cc(Cl)ccc31)N(c1cc(Cl)cnc1C)C2=O [Example R-137, (R)-6-chloro-5′-(5-chloro-2-methylpyridin-3-yl)-2′-(6-isopropoxy-4-methoxypyridin-3-yl)-3′-isopropyl-3′H-spiro[dihydroindole-3,4′-pyrrolo[3,4-d]imidazole]-2,6′(5′H)-dione]
IC50 (MDM2): 422 nM

CCOc1ncc(-c2nc3c(n2C(C)C)[C@]2(C(=O)Nc4cc(Cl)ccc42)N(c2cccc(Cl)c2)C3=O)c(OC)n1 [Example R-123, (R)-6-chloro-5′-(3-chlorophenyl)-2′-(2-ethoxy-4-methoxypyrimidin-5-yl)-3′-isopropyl-3′H-spiro[dihydroindole-3,4′-pyrrolo[3,4-d]imidazole]-2,6′(5′H)-dione]
IC50 (MDM2): 116 nM

COc1cc(OC)c(-c2nc3c(n2C(C)C)[C@]2(C(=O)Nc4cc(Cl)ccc42)N(c2cc(Cl)cnc2C)C3=O)cn1 [Example R-131, (R)-6-chloro-5′-(5-chloro-2-methylpyridin-3-yl)-2′-(4,6-dimethoxypyridin-3-yl)-3′-isopropyl-3′H-spiro[dihydroindole-3,4′-pyrrolo[3,4-d]imidazole]-2,6′(5′H)-dione]
IC50 (MDM2): 120 nM

COc1cc(N)ccc1-c1nc2c(n1C(C)C)[C@]1(C(=O)Nc3cc(Cl)ccc31)N(c1ccc(F)c(Cl)c1)C2=O [Example R-73, (R)-2′-(4-amino-2-methoxyphenyl)-6-chloro-5′-(3-chloro-4-fluorophenyl)-3′-isopropyl-3′H-spiro[dihydroindole-3,4′-pyrrolo[3,4-d]imidazole]-2,6′(5′H)-dione]
IC50 (MDM2): 142 nM

COc1nc(N(C)C)ncc1-c1nc2c(n1C(C)C)C1(C(=O)Nc3cc(Cl)ccc31)N(c1cc(Cl)cnc1C)C2=O (centres unmarked) [Example 135, 6-chloro-5′-(5-chloro-2-methylpyridin-3-yl)-2′-(2-(dimethylamino)-4-methoxypyrimidin-5-yl)-3′-isopropyl-3′H-spiro[dihydroindole-3,4′-pyrrolo[3,4-d]imidazole]-2,6′(5′H)-dione]
inhibitory effect on MDM2 compared with positive control compound HDM201 (MDM2; labels are Example numbers, the compounds with S-configuration are meant): better

COc1nc(N(C)C)ncc1-c1nc2c(n1C(C)C)[C@]1(C(=O)Nc3cc(Cl)ccc31)N(c1cc(Cl)ccc1C)C2=O [Example R-82, (R)-6-chloro-5′-(5-chloro-2-methylphenyl)-2′-(2-(dimethylamino)-4-methoxypyrimidin-5-yl)-3′-isopropyl-3′H-spiro[dihydroindole-3,4′-pyrrolo[3,4-d]imidazole]-2,6′(5′H)-dione]
IC50 (MDM2): 394 nM

COc1cccc(OC)c1-c1nc2c(n1C(C)C)[C@]1(C(=O)Nc3cc(Cl)ccc31)N(c1cc(Cl)ccc1C)C2=O [Example R-79, (R)-6-chloro-5′-(5-chloro-2-methylphenyl)-2′-(2,6-dimethoxyphenyl)-3′-isopropyl-3′H-spiro[dihydroindole-3,4′-pyrrolo[3,4-d]imidazole]-2,6′(5′H)-dione]
IC50 (MDM2): 285 nM

COc1ncc(-c2nc3c(n2C(C)C)[C@H](c2ccc(Cl)cc2)N(c2cc(Cl)cn(C)c2=O)C3=O)c(OC)n1 [HDM201, reference compound]
AUC(0-t) [1, 2]: 520.23 ng·h/mL and 622.13 ng·h/mL | AUC(0-∞) [1, 2]: 600.29 ng·h/mL and 713.62 ng·h/mL | CL [1, 2]: 55.5285 mL/min/kg and 46.7105 mL/min/kg | Cmax [1, 2]: 459.85 ng/mL and 585.03 ng/mL | MRT(0-t) [1, 2]: 40.8 min and 39.6 min | MRT(0-∞) [1, 2]: 58.8 min and 57.6 min | Vz [1, 2]: 3.23181 L/kg and 2.7173 L/kg | t1/2 [1, 2]: 40.2 min | F* ([1]; PO 5 mg/kg vs IV 2 mg/kg, ICR mice): 78.76% | AUC(0-t) [1, 3]: 797.19 ng·h/mL and 1522.78 ng·h/mL | AUC(0-∞) [1, 3]: 818.45 ng·h/mL and 1539.76 ng·h/mL | Cmax [1, 3]: 584.08 ng/mL and 715.01 ng/mL | MRT(0-t) [1, 3]: 62.4 min and 109 min | MRT(0-∞) [1, 3]: 69 min and 115 min | t1/2 [1, 3]: 44.4 min and 74.4 min | AUC(0-inf) [1, 4]: 644 ng·h/mL | clearance [1, 4]: 52 mL/min/kg | AUC(0-t) ([1]; male, ICR, mouse, plasma, iv, 2 mg/kg, IV 2 mg/kg, ICR mice, Mean, read-out: AUC(0-t)): 572 ng·h/mL | Cmax ([1]; male, ICR, mouse, plasma, iv, 2 mg/kg, IV 2 mg/kg, ICR mice, Mean, read-out: Cmax): 550 ng/mL | MRT last [1, 4]: 38.4 min | MRT inf [1, 4]: 54 min | Tmax [1, 4]: 4.98 min | Vd [1, 4]: 2.8 L/kg | half-life [1, 4]: 37.2 min | AUC(0-inf) [1, 5]: 619 ng·h/mL | clearance [1, 5]: 53.8 mL/min/kg | AUC(0-t) ([1]; male, ICR, mouse, plasma, iv, 2 mg/kg, IV 2 mg/kg, ICR mice, individual animal, read-out: AUC(0-t)): 574 ng·h/mL | Cmax ([1]; male, ICR, mouse, plasma, iv, 2 mg/kg, IV 2 mg/kg, ICR mice, individual animal, read-out: Cmax): 606 ng/mL | MRT last [1, 5]: 35.4 min | MRT inf [1, 5]: 45 min | Tmax [1, 5]: 4.8 min | Vd [1, 5]: 2.46 L/kg | half-life [1, 5]: 31.8 min | AUC(0-inf) [1, 6]: 1150 ng·h/mL | AUC(0-t) ([1]; male, ICR, mouse, plasma, po, 5 mg/kg, PO 5 mg/kg, ICR mice, Mean, read-out: AUC(0-t)): 1130 ng·h/mL | Cmax ([1]; male, ICR, mouse, plasma, po, 5 mg/kg, PO 5 mg/kg, ICR mice, Mean, read-out: Cmax): 569 ng/mL | MRT last [1, 6]: 96 min | MRT inf [1, 6]: 103 min | Tmax [1, 6]: 30 min | half-life [1, 6]: 66.6 min | AUC(0-inf) [1, 7]: 1080 ng·h/mL | AUC(0-t) ([1]; male, ICR, mouse, plasma, po, 5 mg/kg, PO 5 mg/kg, ICR mice, individual animal, read-out: AUC(0-t)): 1060 ng·h/mL | Cmax ([1]; male, ICR, mouse, plasma, po, 5 mg/kg, PO 5 mg/kg, ICR mice, individual animal, read-out: Cmax): 409 ng/mL | MRT last [1, 7]: 116 min | MRT inf [1, 7]: 125 min | Tmax [1, 7]: 30 min | half-life [1, 7]: 80.4 min | AUC(0-t) ([1]; male, ICR, mouse, plasma, po, 5 mg/kg, oral intragastric administration 5 mg/kg, read-out: AUC0-t): 1130 ng·h/mL | bioavailability ([1]; male, ICR, mouse, plasma, oral intragastric administration 5 mg/kg, read-out: bioavailability): 78.8%
